Among the test systems are RPMI-8226; EKVX; UACC-62; HOP-92; SK-MEL-5; LOX IMVI; BT-549; SW-620; HT-29; RXF 393; SR; UO-31; NCI-H226; HOP-62; MDA-MB-435; OVCAR-4; Malme-3M; NCI-H522; OVCAR-3.
Experiment in all cases: NCI anticancer screen, dose series, 48 h

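All cell lines were grown in 96-well plates and treated with compound for 48 hours. GI50: concentration for 50% inhibition of growth.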 Active and inactive are the calls of the source. Cut-off read from the data, not from the text of the source: active = GI50 up to about 1.1 µM and inactive = higher. Where a SMILES comes first, the peptide text is derived from it. The star is where a group is joined. Boc = CC(C)(C)OC(=O)*

`CCOC(=O)c1nc2ccc(C(F)(F)F)cc2nc1Oc1ccc(F)cc1`: the GI50 with RPMI-8226, with EKVX, with UACC-62, in the test with HOP-92, in the test on SK-MEL-5 and in the test on LOX IMVI was > 100 µM (inactive) each time. The GI50 in the test on BT-549, in the test with SW-620, in the test on HT-29, in the test on RXF 393, in the test on SR and with UO-31 was > 100 µM (inactive) each time. Besides, the GI50 in the test on NCI-H226, in the test on HOP-62, with MDA-MB-435 and in the test on OVCAR-4 was > 100 µM (inactive) throughout.
For `O=C(O)c1cnc2cc(OCc3ccccc3)ccc2c1O`, the GI50 in the test with RPMI-8226 was 24.8 µM (inactive); in the test on EKVX, 22.8 µM (inactive); in the test with UACC-62, 16.8 µM (inactive); with HOP-92, 19.4 µM (inactive); in the test on SK-MEL-5 it was 17.7 µM (inactive); in the test with Malme-3M it was 13.8 µM (inactive). In addition, the GI50 in the test on BT-549 was 18.4 µM (inactive); in the test on SW-620 it was 19.2 µM (inactive); in the test with HT-29, 19.2 µM (inactive); in the test with RXF 393, 18.3 µM (inactive); with SR, 23 µM (inactive); in the test on NCI-H522 it was 16.5 µM (inactive). The GI50 is 17.3 µM (inactive) in the test with UO-31; 18.3 µM (inactive) with NCI-H226; 20.7 µM (inactive) in the test on OVCAR-3; 20.7 µM (inactive) with HOP-62; 16.2 µM (inactive) in the test on MDA-MB-435; 16.6 µM (inactive) in the test on OVCAR-4.
As for `CCN(CC)C(=S)SNCCc1ccc(S(N)(=O)=O)cc1`, the GI50 is 11.5 µM (inactive) in the test with RPMI-8226; 20 µM (inactive) with EKVX; 16.9 µM (inactive) in the test with UACC-62; 17.5 µM (inactive) in the test on HOP-92; 11.2 µM (inactive) in the test on SK-MEL-5; 8 µM (inactive) with LOX IMVI. Further, the GI50 with Malme-3M was 12 µM (inactive); in the test with BT-549 it was 16 µM (inactive); in the test with SW-620, 14.1 µM (inactive); in the test with HT-29 it was 10.2 µM (inactive); in the test with RXF 393 it was 7.57 µM (inactive); in the test on SR it was < 0.01 µM (active). The GI50 was 13.1 µM (inactive) in the test on UO-31; 42.7 µM (inactive) in the test with NCI-H226; 18.9 µM (inactive) with OVCAR-3; 12.2 µM (inactive) in the test on HOP-62; 14.7 µM (inactive) with MDA-MB-435; 14.4 µM (inactive) in the test with OVCAR-4.
Regarding `CC(NC(=O)C1CCCN1C(=O)CNC(=O)OC(C)(C)C)C(=O)O` (stereo not drawn) (Boc-Gly-Pro-Ala-OH; configuration not given here), the GI50 with RPMI-8226 is > 100 µM (inactive); with EKVX, > 100 µM (inactive); in the test with UACC-62, > 100 µM (inactive); in the test on HOP-92, 62.5 µM (inactive); in the test with SK-MEL-5 it was > 100 µM (inactive); in the test on Malme-3M, > 100 µM (inactive). Moreover, the GI50 in the test with BT-549, in the test on SW-620, in the test on HT-29, in the test with RXF 393, with SR and in the test with NCI-H522 was > 100 µM (inactive) throughout. For the same molecule, the GI50 in the test on UO-31, in the test with NCI-H226, in the test with OVCAR-3, with HOP-62 and in the test on MDA-MB-435 was > 100 µM (inactive) in each case.
Take `CC(C)(C)c1cc(CC2C(=O)c3ccccc3C2=O)cc(C(C)(C)C)c1O`: the GI50 with RPMI-8226 was 0.764 µM (active); in the test on EKVX, 5.37 µM (inactive); in the test with UACC-62, 3.58 µM (inactive); in the test on HOP-92, 0.272 µM (active); with SK-MEL-5, 2.7 µM (inactive); in the test with LOX IMVI, 3.81 µM (inactive). The GI50 was 3.45 µM (inactive) in the test on BT-549; 2.51 µM (inactive) with SW-620; 3.13 µM (inactive) in the test with HT-29; 2.88 µM (inactive) in the test with SR; 2.62 µM (inactive) in the test with NCI-H522; 2.95 µM (inactive) with UO-31. Also, the GI50 with OVCAR-3 was 2.89 µM (inactive); with HOP-62, 2.54 µM (inactive); in the test with MDA-MB-435, 3.78 µM (inactive); with OVCAR-4 it was 4.08 µM (inactive).
For `CCOC(=O)[C@@]12C[C@](/C=C/OC)(O[Si](C)(C)C)[C@@]13c1cc(OC)c(OC)cc1CCN3C(=O)C2=O`, the GI50 in the test with RPMI-8226, in the test with EKVX, in the test with UACC-62, in the test on HOP-92, in the test with SK-MEL-5 and in the test on LOX IMVI was > 100 µM (inactive) throughout. For the same molecule, the GI50 in the test with Malme-3M, in the test on BT-549, in the test on SW-620, in the test on HT-29, with RXF 393 and in the test on SR was > 100 µM (inactive) throughout. Moreover, the GI50 with UO-31, in the test on NCI-H226, in the test with OVCAR-3, in the test with HOP-62, in the test on MDA-MB-435 and in the test with OVCAR-4 was > 100 µM (inactive) in each case.
On to `COC(=O)C1=C(O)C(C(=O)OC)[C@@]2(O)[C@@H](C(=O)OC)C(c3ccc(OC(=O)/C(=C/c4ccccc4)c4ccccc4)cc3)C[C@@H]1[C@@H]2C(=O)OC` (stereo partly specified), for which the GI50 is 64.6 µM (inactive) with EKVX; 3.47 µM (inactive) with UACC-62; 14.4 µM (inactive) in the test with HOP-92; 26.8 µM (inactive) in the test with SK-MEL-5; 4.71 µM (inactive) with LOX IMVI; > 100 µM (inactive) in the test on Malme-3M. Further, the GI50 was > 100 µM (inactive) in the test on BT-549; 8.09 µM (inactive) in the test on SW-620; 25.4 µM (inactive) in the test on HT-29; 9.71 µM (inactive) in the test on RXF 393; 6.73 µM (inactive) with SR; 13.3 µM (inactive) with NCI-H522. Further, the GI50 with UO-31 is 10.9 µM (inactive); with NCI-H226, 9.86 µM (inactive); in the test on OVCAR-3, 35.6 µM (inactive); with HOP-62, > 100 µM (inactive); in the test with MDA-MB-435, 10.5 µM (inactive); in the test on OVCAR-4 it was 16.9 µM (inactive).
In the case of `N#CCc1nc(Cc2ccccc2)n[nH]1`, the GI50 with EKVX, in the test on UACC-62, in the test on HOP-92, in the test with SK-MEL-5, with LOX IMVI and with Malme-3M was > 100 µM (inactive) each time. The GI50 in the test with BT-549, in the test on SW-620, with HT-29, in the test with RXF 393, in the test with SR and with NCI-H522 was > 100 µM (inactive) throughout. The GI50 in the test on UO-31, with OVCAR-3, in the test on HOP-62, in the test on MDA-MB-435 and with OVCAR-4 was > 100 µM (inactive) each time.
With `Cc1nc(-c2cc3c(ccc4ccccc43)oc2=O)cc2c1c(=O)oc1ccc3ccccc3c12`, the GI50 with EKVX, with UACC-62, in the test with HOP-92, in the test on SK-MEL-5, in the test on LOX IMVI and in the test on Malme-3M was > 100 µM (inactive) in each case. The GI50 in the test on BT-549, with SW-620, in the test with HT-29, in the test on RXF 393, in the test on SR and in the test with NCI-H522 was > 100 µM (inactive) each time. For the same molecule, the GI50 with UO-31, with OVCAR-3, in the test with HOP-62, in the test with MDA-MB-435 and in the test with OVCAR-4 was > 100 µM (inactive) throughout.
Consider `COc1ccc(/C=C2\CCCC(CN(C)C)C2=O)cc1` (stereo unspecified), for which the GI50 was 0.223 µM (active) with RPMI-8226; 10.2 µM (inactive) in the test with EKVX; 1.95 µM (inactive) with UACC-62; 4.35 µM (inactive) in the test with HOP-92; 15.3 µM (inactive) in the test on SK-MEL-5; 1.34 µM (inactive) with LOX IMVI. In addition, the GI50 in the test with Malme-3M was 2.53 µM (inactive); in the test with BT-549, 1.92 µM (inactive); in the test on SW-620 it was 0.891 µM (active); in the test with HT-29 it was 1.75 µM (inactive); in the test with SR, 1.02 µM (active); in the test with NCI-H522, 1.37 µM (inactive). For the same molecule, the GI50 was 3.63 µM (inactive) in the test with UO-31; 18.1 µM (inactive) in the test on NCI-H226; 1.94 µM (inactive) in the test with OVCAR-3; 17.5 µM (inactive) in the test on HOP-62; 2.61 µM (inactive) in the test on MDA-MB-435; 1.76 µM (inactive) in the test on OVCAR-4.
For `C=CC[C@H]1O[Si](C(C)(C)C)(C(C)(C)C)[C@H](C)[C@H]1C`, the GI50 in the test with RPMI-8226 is > 10 µM (inactive); in the test on EKVX it was > 100 µM (inactive); in the test with UACC-62, > 100 µM (inactive); in the test on HOP-92, 24.3 µM (inactive); in the test on SK-MEL-5, > 100 µM (inactive); with LOX IMVI, > 100 µM (inactive). Moreover, the GI50 is 20.3 µM (inactive) in the test on Malme-3M; > 100 µM (inactive) with BT-549; > 100 µM (inactive) with SW-620; > 100 µM (inactive) with HT-29; 59.6 µM (inactive) with SR; > 100 µM (inactive) in the test with NCI-H522. The GI50 in the test on UO-31, in the test on NCI-H226, in the test with OVCAR-3, with HOP-62, in the test on MDA-MB-435 and with OVCAR-4 was > 100 µM (inactive) each time.
